Series [1] relates to Platelet. In words: Induction of human washed-platelet aggregation at 20 ug/test tube after 4 mins by light transmission aggregometer. Format: functional.
Series [2] concerns Platelet. Description: Induction of human washed-platelet aggregation at 232 ug/test tube after 4 mins by light transmission aggregometer. The format is functional.
The subject of series [3] is Platelet. In words: Induction of human washed-platelet aggregation at 20 ug/test tube after 1 min by light transmission aggregometer. Format: functional.
Series [4] relates to Platelet. Description: Induction of human washed-platelet aggregation at 232 ug/test tube after 1 min by light transmission aggregometer. Format: functional.
A short description of series [5]: Cytotoxicity against human washed-platelet assessed as LDH release after 5 mins by sonication method. Format: cell-based. On the technique in general: Release of lactate dehydrogenase indicates damage to the cell membrane.
For series [6], the system named is Platelet. Description: Induction of human washed-platelet aggregation at 273 ug/test tube after 1 min by light transmission aggregometer. Format: functional.
Series [7] relates to Platelet. Description: Induction of human washed-platelet aggregation at 273 ug/test tube after 4 mins by light transmission aggregometer. The format is functional.
Series [8] concerns Platelet. In words: Induction of human washed-platelet aggregation at 82 ug/test tube after 1 min by light transmission aggregometer. Format: functional.
Series [9] deals with Platelet. In words: Induction of human washed-platelet aggregation at 82 ug/test tube after 4 mins by light transmission aggregometer. Format: functional.
Series [10] deals with Platelet. Description: Induction of human washed-platelet aggregation at 85 ug/test tube after 4 mins by light transmission aggregometer. The format is functional.
For series [11], the system named is Platelet. In words: Induction of human washed-platelet aggregation at 85 ug/test tube after 1 min by light transmission aggregometer. Format: functional.

Structures are written as SMILES.

For `CO[C@@H]1[C@@H](O)[C@H](O[C@H]2CC[C@@]3(C)[C@@H](CC[C@@H]4[C@@H]3CC[C@]3(C)[C@@H](C(C)=O)[C@H](O)[C@@H](O)[C@]43O)C2)O[C@H](C)[C@H]1O[C@@H]1C[C@@H](O)[C@@H](O[C@@H]2C[C@H](OC)[C@@H](O[C@H]3C[C@@H](OC)[C@H](O)[C@@H](C)O3)[C@H](C)O2)[C@H](C)O1`, the Activity is given as 12.5% in the series with Platelet [1]; 54.5% in the series with Platelet [2]; 12.5% in the series on Platelet [3]; 18.3% in the series with Platelet [4]; “<= 3.8%” in series [5].

On to `CO[C@@H]1[C@@H](O)[C@H](O[C@H]2CC[C@@]3(C)[C@@H](CC[C@@H]4[C@@H]3CC[C@]3(C)[C@@H](C(C)=O)[C@H](O)[C@@H](O)[C@]43O)C2)O[C@H](C)[C@H]1O[C@@H]1C[C@@H](O)[C@@H](O[C@@H]2C[C@H](OC)[C@@H](O[C@H]3C[C@@H](OC)[C@H](O[C@@H]4O[C@H](CO)[C@@H](O)[C@H](O)[C@H]4O)[C@@H](C)O3)[C@H](C)O2)[C@H](C)O1`, for which the Activity is listed as 9.4% with Platelet [1]; 5.3% with Platelet [3]; 14.1% with Platelet [6]; “<= 3.8%” in series [5]; 42.3% with Platelet [7].

For `COC1=C[C@]23CCN(C)[C@H](Cc4cc(OC)c(O)cc42)C3=CC1=O` [FLAVINANTINE], the Activity in the series with Platelet [1] is given as 3.5%; in the series on Platelet [8] it was 6.3%; in the series on Platelet [3], 2.1%; in the series on Platelet [9], 17.5%; in series [5], “<= 3.8%”.

Regarding `COC1=C[C@]23CCN(C)[C@H](Cc4cc(OC)c(OC)cc42)C3=CC1=O` [O-METHYLFLAVINANTINE], the Activity is given as 0% in the series with Platelet [1]; 8.8% in the series on Platelet [10]; 3.1% with Platelet [11]; 0% in the series with Platelet [3]; “<= 3.8%” in [5].

For the origin of these results see ChEMBL document CHEMBL1141732, “Croton ruizianus: platelet proaggregating activity of two new pregnane glycosides” (J Nat Prod, 1998).
